One may read the IC50 as the concentration needed to halve the response being measured.

In this assay the target is kappa opioid receptor (OPRK1) (Homo sapiens (Human), UniProt P41145). Nature of the assay: OPRK1 antagonist assay (b-arrestin-2-TEV / b-lactamase reporter, EC80 U-50488 challenge). It counts as cell-based. The conditions noted are these: OPRK1 antagonist assay vs EC80 U-50488.
Sequence of kappa opioid receptor (OPRK1) (P41145 whole entry): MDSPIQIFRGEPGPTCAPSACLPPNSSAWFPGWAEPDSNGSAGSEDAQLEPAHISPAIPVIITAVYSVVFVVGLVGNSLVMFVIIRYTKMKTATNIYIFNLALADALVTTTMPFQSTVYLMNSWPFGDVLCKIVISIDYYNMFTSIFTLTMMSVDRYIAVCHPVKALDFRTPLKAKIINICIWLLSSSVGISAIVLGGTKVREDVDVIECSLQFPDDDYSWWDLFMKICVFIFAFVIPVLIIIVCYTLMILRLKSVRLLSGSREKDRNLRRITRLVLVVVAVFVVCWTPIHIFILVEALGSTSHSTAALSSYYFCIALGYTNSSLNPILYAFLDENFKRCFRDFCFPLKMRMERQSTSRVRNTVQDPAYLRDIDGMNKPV
On to `Cc1ccc2nc(N3CCC(NC4CCOCC4)CC3)c(-c3ccc(C)nn3)cc2c1` [compound 441], for which the IC50 turned out to be 392 nM.

In the case of `Cc1ccc2nc(N3CCC(NCC(C)C)CC3)c(-c3ccc(C)nn3)cc2c1` [compound 442], half-maximal inhibition (IC50) was put at 324 nM.

In turn, `Cc1ccc2nc(N3CCC(NC4CCCC[C@@H]4O)CC3)c(-c3ccc(C)nn3)cc2c1` (some centres unmarked) [compound 443] gave an IC50 of 33 nM.

As to `Cc1ccc2nc(N3CCC(NC4CCC[C@@H]4O)CC3)c(-c3ccc(C)nn3)cc2c1` (some centres unmarked) [compound 444], it took 634 nM to reach half-maximal inhibition (IC50).

As to `Cc1ccc2nc(N3CCC(NC4CCCC4)CC3)c(-c3ccc(C)nn3)cc2c1` [compound 445], the IC50 was found to be 55 nM. Compared with the last compound, the IC50 is about 12-fold lower.

Compound `Cc1nc(-c2c(N3CCC(NC4CCCC[C@@H]4O)CC3)nc3ccccc3c2C)no1` (some centres unmarked) [compound 446] displayed an IC50 of 72 nM.

Turning to `Cc1nc(-c2c(N3CCC(NC4CCOCC4)CC3)nc3ccccc3c2C)no1` [compound 447], half-maximal inhibition (IC50) was put at 1150 nM.

In turn, `Cc1nc(-c2c(N3CCC(NCC(C)C)CC3)nc3ccccc3c2C)no1` [compound 448] gave an IC50 of 226 nM.

In turn, `CCC(CC)NC1CCN(c2nc3ccccc3c(C)c2-c2noc(C)n2)CC1` [compound 449] had a 50% inhibitory concentration (IC50) of 129 nM.

In the case of `Cc1ccc2nc(N3CCC(NC4CCCCC4O)CC3)c(-c3ccc(C)nn3)cc2c1` (centres unmarked) [compound 451], the midpoint of inhibition, the IC50, lay at 94 nM.

In turn, `Cc1cc(-c2noc(C)n2)c(N2CCC(NC3CCCC[C@@H]3O)CC2)nn1` (some centres unmarked) [compound 452] yielded an IC50 of 47 nM. This IC50 lies about 2-fold lower than the previous one.

`CCc1ccc(-c2cc3cc(C)ccc3nc2N2CCC(NC3CCCC[C@@H]3O)CC2)nn1` (some centres unmarked) [compound 454] yielded a half-maximal inhibitory concentration (IC50) of 783 nM.

The compound `CCc1ccc(-c2cc3cc(C)ccc3nc2N2CCC(NC3CCCCC3)CC2)nn1` [compound 455] had a half-inhibitory concentration (IC50) of 1640 nM.

Turning to `CO[C@H]1CN(c2nnc(C)cc2-c2nc(C3CC3)no2)CC[C@H]1NC1CCCCC1` [compound 456], it took 6 nM to reach half-maximal inhibition (IC50).

Compound `Cc1cc(-c2nc(C3CC3)no2)c(N2CCC(NC3CCCCC3)CC2)nn1` [compound 457] gave a concentration for half-maximal inhibition (IC50) of 24 nM. Compared with the last compound, the IC50 is about 4-fold higher.

`Cc1ccc2nc(N3CCC(NC4CCOC4)CC3)c(-c3ccc(C)nn3)cc2c1` (centres unmarked) [compound 458] registered an IC50 of 440 nM.

Turning to `CO/N=C/c1cc2cc(C)ccc2nc1N1CCC(NC2CCCCC2)CC1` [compound 459], the IC50 was 15 nM.

`CCO/N=C/c1cc2cc(C)ccc2nc1N1CCC(NC2CCCCC2)CC1` [compound 460] yielded an IC50 of 141 nM.

Turning to `COC1CN(c2nc3ccccc3cc2-c2cccnn2)CCC1NC1CCCCC1` (centres unmarked) [compound 463], the half-maximal inhibitory concentration (IC50) came out at 54 nM. Against the preceding compound, the IC50 is about 2.6-fold lower.

The compound `c1cnnc(-c2cc3ccccc3nc2N2CCC(NC3CCCCC3)CC2)c1` [compound 464] gave an IC50 of 87 nM.

`Cc1nc(-c2cc3cc(F)ccc3nc2N2CCC(NC3CCCCC3)CC2)no1` [compound 489]: it took 616 nM to reach half-maximal inhibition (IC50). Against the preceding compound, the IC50 is about 7.1-fold higher.

As to `CCC(CC)NC1CCN(c2nc3ccc(F)cc3cc2-c2noc(C)n2)CC1` [compound 490], the half-maximal inhibitory concentration (IC50) came to 248 nM. This IC50 lies about 2.5-fold lower than the previous one.

`Cc1ccc2nc(N3CCC(N[C@H](C)C(C)C)CC3)c(-c3noc(C)n3)cc2c1` [compound 524] registered a 50% inhibitory concentration (IC50) of 57 nM.
